Experimental data reported in ChEMBL document CHEMBL1201862, “PubChem BioAssay data set” (2004).
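1) Cells in 96-well plates. 2) Compound, 48 h, 5 concentrations. 3) Linear interpolation between surrounding doses. 4) Unreached endpoint = highest concentration. GI50: concentration for 50% inhibition of growth.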 Calls of active or inactive are those of the source. Cut-off read from the data, not from the text of the source: active = GI50 up to about 1.1 µM and inactive = higher.

Assays:
Assay in all cases: inhibition of tumour cell growth, NCI panel, 48 h
[1] = system: SW-620
[2] = system: HOP-92
[3] = system: NCI-H460
[4] = system: LOX IMVI
[5] = system: COLO 205
[6] = system: A498
[7] = system: KM12
[8] = system: OVCAR-3
[9] = system: CAKI-1
[10] = system: SK-MEL-28
[11] = system: SK-OV-3
[12] = system: HOP-62
[13] = system: OVCAR-4
[14] = system: M14
[15] = system: NCI-H522
[16] = system: UO-31
[17] = system: Malme-3M
[18] = system: K562
[19] = system: NCI-H23

Measured: GI50

O=C1CC2C=CC1C2CO (stereo not drawn)
inactive: [1] > 100 µM | [2] > 100 µM | [3] > 100 µM | [4] > 100 µM | [5] > 100 µM | [6] > 100 µM | [7] > 100 µM | [8] > 100 µM | [9] > 100 µM | [10] > 100 µM | [11] > 100 µM | [12] > 100 µM | [13] > 100 µM | [14] > 100 µM | [15] > 100 µM | [16] > 100 µM | [17] > 100 µM

O=S1(=O)CCCS(=O)(=O)C(c2ccccc2)=C1c1ccccc1
inactive: [1] 27.5 µM | [2] 28.2 µM | [3] 47.3 µM | [4] 33 µM | [6] > 100 µM | [7] 24.7 µM | [8] 36.6 µM | [9] 76.7 µM | [18] 31.9 µM | [10] > 100 µM | [11] 44.2 µM | [12] 30.3 µM | [13] 23.3 µM | [14] 26.9 µM | [15] 27.5 µM | [16] > 100 µM | [17] 34.2 µM | [19] 50.5 µM

O=[PH](O)c1cccnc1
inactive: [1] > 100 µM | [2] > 100 µM | [3] > 100 µM | [4] > 100 µM | [5] > 100 µM | [6] > 100 µM | [7] > 100 µM | [8] > 100 µM | [9] > 100 µM | [18] > 100 µM | [10] > 100 µM | [11] > 100 µM | [12] > 100 µM | [13] > 100 µM | [14] > 100 µM | [15] > 100 µM | [16] > 100 µM | [17] > 100 µM | [19] > 100 µM

O=C(CNC(=O)OCc1ccccc1)Oc1ccccc1
inactive: [2] > 100 µM | [3] > 100 µM | [4] > 100 µM | [5] > 100 µM | [6] > 100 µM | [7] > 100 µM | [8] > 100 µM | [18] > 100 µM | [10] > 100 µM | [11] > 100 µM | [12] > 100 µM | [13] > 100 µM | [14] > 100 µM | [15] > 100 µM | [16] > 100 µM | [17] > 100 µM | [19] > 100 µM

CC[N+](C)(C)c1ccc(C(=C2C=CC(=[N+](C)C)C=C2)c2ccc(N(C)C)cc2)cc1
inactive: [1] 4.41 µM | [2] 19.5 µM | [3] 5.74 µM | [4] 5.2 µM | [5] 5.31 µM | [6] 15.9 µM | [7] 4.55 µM | [8] 10.5 µM | [9] 23.7 µM | [18] 3.12 µM | [10] 16.9 µM | [11] 19.4 µM | [12] 8.34 µM | [13] 15.1 µM | [14] 11 µM | [15] 2.79 µM | [16] 27.5 µM | [17] 22.8 µM | [19] 17.7 µM

Cc1nc2ccccc2c(=O)n1/N=C(\N=N\c1ccccc1)c1ccccc1Cl
inactive: [1] > 88.5 µM | [2] 25 µM | [3] 24 µM | [4] 66.1 µM | [5] > 100 µM | [6] 20.6 µM | [7] 41.4 µM | [8] 27 µM | [9] 25.4 µM | [18] 30.6 µM | [10] 79.3 µM | [11] 11.2 µM | [12] 32.1 µM | [13] 41 µM | [14] > 86.7 µM | [15] 30.2 µM | [16] 29.2 µM | [17] 53 µM | [19] 27.7 µM

Cc1cc(Cl)ccc1N1C(=O)C(=O)C(c2nc3ccccc3s2)C(=O)C1=O
inactive: [1] > 100 µM | [2] > 100 µM | [3] > 100 µM | [5] > 100 µM | [6] > 100 µM | [7] > 100 µM | [8] > 100 µM | [9] > 100 µM | [18] > 100 µM | [10] > 100 µM | [11] > 100 µM | [12] > 100 µM | [13] > 100 µM | [14] > 100 µM | [15] > 100 µM | [16] > 100 µM | [17] > 100 µM | [19] > 100 µM

Cn1c(=O)c(C(=O)NC(=O)OCc2ccccc2)cn(CCSCCOC(=O)NCCCCCCNC(=O)OCCSCCn2cc(C(=O)NC(=O)OCc3ccccc3)c(=O)n(C)c2=O)c1=O
inactive: [1] > 100 µM | [2] 23.2 µM | [3] > 100 µM | [4] > 100 µM | [5] > 100 µM | [6] > 100 µM | [18] > 100 µM | [10] > 100 µM | [12] 36.7 µM | [13] > 100 µM | [14] > 100 µM | [15] > 100 µM | [16] 74.6 µM | [17] > 100 µM | [19] > 100 µM

COc1cc(/C=C(\NC(=O)c2ccccc2)c2nc3ccc4c(c3[nH]2)C(=O)c2ccccc2C4=O)cc(OC)c1OC
inactive: [1] 38.3 µM | [2] 25.4 µM | [4] 20.3 µM | [5] > 100 µM | [6] 13.1 µM | [7] 8.05 µM | [8] 38.1 µM | [9] 10.1 µM | [18] 28 µM | [10] 77.6 µM | [11] 18.6 µM | [12] > 100 µM | [13] 69.3 µM | [14] 63.1 µM | [15] 7.24 µM | [16] 2.36 µM | [17] > 100 µM | [19] 55.6 µM

Clc1ccc(SC(/C=C/NNC2=NN=C(c3ccccc3)C(c3ccccc3)N2)c2ccccc2)cc1 (stereo not drawn)
inactive: [1] 33.5 µM | [2] 7.98 µM | [3] 26.2 µM | [4] 21.9 µM | [5] 20.8 µM | [6] 28.2 µM | [7] 21 µM | [8] 11.8 µM | [9] 12.3 µM | [18] 18.2 µM | [10] 20.8 µM | [11] 68.1 µM | [12] 33 µM | [13] 17.9 µM | [14] 18.5 µM | [15] 17.9 µM | [16] 13.2 µM | [17] 18.2 µM | [19] 10.4 µM

CC1(Br)C(=O)NC(=O)N([C@H]2C[C@H](O)[C@@H](CO)O2)C1N=[N+]=[N-] (stereo partly drawn)
inactive: [1] > 100 µM | [2] > 100 µM | [3] > 100 µM | [4] > 100 µM | [5] > 100 µM | [6] > 100 µM | [7] > 100 µM | [8] > 100 µM | [9] > 100 µM | [18] > 100 µM | [10] > 100 µM | [11] > 100 µM | [12] > 100 µM | [13] > 100 µM | [14] > 100 µM | [15] > 100 µM | [16] > 100 µM | [17] > 100 µM | [19] > 100 µM
